The results in this text go back to ChEMBL document CHEMBL1126229, “Enol lactone derivatives as inhibitors of human neutrophil elastase and trypsin-like proteases” (Bioorg Med Chem Lett, 1992).

Assay [1] deals with T1, Urokinase-type plasminogen activator (Homo sapiens, UniProt P00749). Nature of the assay: Rate constant of deacylation for Urokinase-type plasminogen activator.
Assay [2] concerns the target Chymotrypsinogen A (Bos taurus) (UniProt P00766). Nature of the assay: Binding constant on alpha-chymotrypsin was determined at 45 percent and at 96 minutes for maximum inhibition and no enzyme activity was recovered over the 2 h-time.
Assay [3] addresses T2, Serine protease 1 (Homo sapiens, UniProt P07477). Nature of the assay: Rate constant of deacylation for trypsin.
The target in assay [4] is T1, Urokinase-type plasminogen activator.
In assay [5] the target is T2, Serine protease 1.
In assay [6] the target is Chymotrypsinogen A (Bos taurus) (UniProt P00766).
Assay [7] addresses T2, Serine protease 1. This is another data set of the same source.
Assay [8] concerns the target T2, Serine protease 1. This is another data set of the same source.
Description: Specificity constant on trypsin was determined at 0 percent and at 95 minutes for maximum inhibition and no enzyme activity was recovered over the 2 h-time
The target of assay [9] is Chymotrypsinogen A (Bos taurus) (UniProt P00766). The source holds these as a separate data set.
The target in the next assay is Chymotrypsinogen A (Bos taurus, UniProt P00766). Nature of the assay: Rate constant of deacylation for alpha-chymotrypsin; Fast and could not be measured.
Assay [10] deals with T2, Serine protease 1. As to the kind of experiment: Rate constant of deacylation for trypsin; Fast and could not be measured.
For assay [11], the target named is T1, Urokinase-type plasminogen activator. This is another data set of the same source.
Description: Specificity constant on Urokinase-type plasminogen activator was determined at 0 percent and at 86 minutes for maximum inhibition and no enzyme activity was recovered over the 2 h-time
Assay [12] deals with Chymotrypsinogen A (Bos taurus) (UniProt P00766). This is another data set of the same source.
Assay [13] deals with T1, Urokinase-type plasminogen activator. This is another data set of the same source.
The target in assay [14] is T3, Chymotrypsin-like elastase family member 2A (Sus scrofa) (UniProt P08419).
T3 sequence (whole entry): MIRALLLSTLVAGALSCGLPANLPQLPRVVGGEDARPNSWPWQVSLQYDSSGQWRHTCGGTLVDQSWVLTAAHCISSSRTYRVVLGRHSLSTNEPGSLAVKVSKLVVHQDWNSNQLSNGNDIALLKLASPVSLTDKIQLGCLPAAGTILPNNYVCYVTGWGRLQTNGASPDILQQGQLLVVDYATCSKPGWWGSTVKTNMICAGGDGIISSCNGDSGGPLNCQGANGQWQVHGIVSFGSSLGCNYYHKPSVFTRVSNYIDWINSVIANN
As to the kind of experiment: Specificity constant on porcine pancreatic elastase was determined at 15 percent and at 35 minutes for maximum inhibition with 0 minutes persistence of inhibition.

The target of assay [15] is T4, Neutrophil elastase (Homo sapiens) (UniProt P08246).
T4 sequence (whole entry): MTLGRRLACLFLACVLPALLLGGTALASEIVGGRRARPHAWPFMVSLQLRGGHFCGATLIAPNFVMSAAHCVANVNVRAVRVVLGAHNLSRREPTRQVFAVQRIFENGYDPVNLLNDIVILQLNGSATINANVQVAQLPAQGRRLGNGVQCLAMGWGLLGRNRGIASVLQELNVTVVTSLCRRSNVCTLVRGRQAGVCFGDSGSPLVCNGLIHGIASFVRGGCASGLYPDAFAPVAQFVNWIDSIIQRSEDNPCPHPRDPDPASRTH
As to the kind of experiment: Specificity constant on human neutrophil elastase was determined at 20 percent and at 95 minutes for maximum inhibition and no enzyme activity was recovered over the 2 h-time.

Assay [16] has as its target T4, Neutrophil elastase (Homo sapiens). Nature of the assay: Binding constant on human neutrophil elastase was determined at 20 percent and at 95 minutes for maximum inhibition and no enzyme activity was recovered over the 2 h-time.
The target of assay [17] is T3, Chymotrypsin-like elastase family member 2A (Sus scrofa). Nature of the assay: Rate constant of acylation on porcine pancreatic elastase was determined at 15 percent and at 35 minutes for maximum inhibition with 0 minutes persistence of inhibition.
Assay [18] concerns the target T4, Neutrophil elastase (Homo sapiens). As to the kind of experiment: Rate constant of acylation on human neutrophil elastase was determined at 20 percent and at 95 minutes for maximum inhibition and no enzyme activity was recovered over the 2 h-time.
The target of assay [19] is T3, Chymotrypsin-like elastase family member 2A (Sus scrofa). As to the kind of experiment: Binding constant on porcine pancreatic elastase was determined at 15 percent and at 35 minutes for maximum inhibition with 0 minutes persistence of inhibition.
For assay [20], the target named is T4, Neutrophil elastase (Homo sapiens). Nature of the assay: Binding constant on human neutrophil elastase was determined at 30 percent and at 80 minutes for maximum inhibition and no enzyme activity was recovered over the 2 h-time.
The target of assay [21] is T2, Serine protease 1. As to the kind of experiment: Binding constant on trypsin was determined at 10 percent and at 83 minutes for maximum inhibition and no enzyme activity was recovered over the 2 h-time.
The target in assay [22] is T2, Serine protease 1. As to the kind of experiment: Specificity constant on trypsin was determined at 10 percent and at 83 minutes for maximum inhibition and no enzyme activity was recovered over the 2 h-time.
Assay [23] has as its target T3, Chymotrypsin-like elastase family member 2A (Sus scrofa). Nature of the assay: Binding constant on porcine pancreatic elastase was determined at 30 percent and at 99 minutes for maximum inhibition and no enzyme activity was recovered over the 2 h-time.
Assay [24] addresses T4, Neutrophil elastase (Homo sapiens). As to the kind of experiment: Specificity constant on human neutrophil elastase was determined at 30 percent and at 80 minutes for maximum inhibition and no enzyme activity was recovered over the 2 h-time.
The target in assay [25] is Chymotrypsinogen A (Bos taurus) (UniProt P00766). As to the kind of experiment: Specificity constant on alpha-chymotrypsin was determined at 10 percent and at 98 minutes for maximum inhibition and no enzyme activity was recovered over the 2 h-time.
Assay [26] shares this target. Nature of the assay: Binding constant on alpha-chymotrypsin was determined at 10 percent and at 98 minutes for maximum inhibition and no enzyme activity was recovered over the 2 h-time.
Assay [27] deals with T3, Chymotrypsin-like elastase family member 2A (Sus scrofa). As to the kind of experiment: Specificity constant on porcine pancreatic elastase was determined at 30 percent and at 99 minutes for maximum inhibition and no enzyme activity was recovered over the 2 h-time.
In assay [28] the target is Chymotrypsinogen A (Bos taurus) (UniProt P00766). Nature of the assay: Rate constant of acylation on alpha-chymotrypsin was determined at 10 percent and at 98 minutes for maximum inhibition and no enzyme activity was recovered over the 2 h-time.
In assay [29] the target is T2, Serine protease 1. Nature of the assay: Rate constant of acylation on trypsin was determined at 10 percent and at 83 minutes for maximum inhibition and no enzyme activity was recovered over the 2 h-time.
In assay [30] the target is T4, Neutrophil elastase (Homo sapiens). As to the kind of experiment: Rate constant of acylation on human neutrophil elastase was determined at 30 percent and at 80 minutes for maximum inhibition and no enzyme activity was recovered over the 2 h-time.
Assay [31] addresses T3, Chymotrypsin-like elastase family member 2A (Sus scrofa). Nature of the assay: Rate constant of acylation on porcine pancreatic elastase was determined at 30 percent and at 99 minutes for maximum inhibition and no enzyme activity was recovered over the 2 h-time.
Assay [32] has the same target. Nature of the assay: Binding constant on porcine pancreatic elastase was determined at 10 percent and at 73 minutes for maximum inhibition and no enzyme activity was recovered over the 2 h-time.
Assay [33] has the same target. Nature of the assay: Rate constant of acylation on porcine pancreatic elastase was determined at 10 percent and at 73 minutes for maximum inhibition and no enzyme activity was recovered over the 2 h-time.
Assay [34] has the same target. As to the kind of experiment: Specificity constant on porcine pancreatic elastase was determined at 10 percent and at 73 minutes for maximum inhibition and no enzyme activity was recovered over the 2 h-time.
Assay [35] concerns the target T4, Neutrophil elastase (Homo sapiens). Nature of the assay: Rate constant of acylation on human neutrophil elastase was determined at 30 percent and at 10 minutes for maximum inhibition with 0 minutes persistence of inhibition.
The target is the same in assay [36]. Nature of the assay: Binding constant on human neutrophil elastase was determined at 30 percent and at 10 minutes for maximum inhibition with 0 minutes persistence of inhibition.
Assay [37] shares this target. Nature of the assay: Specificity constant on human neutrophil elastase was determined at 30 percent and at 10 minutes for maximum inhibition with 0 minutes persistence of inhibition.
Assay [38] has as its target T1, Urokinase-type plasminogen activator. Nature of the assay: Rate constant of deacylation for Urokinase-type plasminogen activator; NM - Fast and could not be measured.
Assay [39] has the same target. As to the kind of experiment: Binding constant on Urokinase-type plasminogen activator was determined at 0 percent and at 97 minutes for maximum inhibition and no enzyme activity was recovered over the 2 h-time.
Assay [40] has as its target T2, Serine protease 1. Nature of the assay: Binding constant on trypsin was determined at 0 percent and at 97 minutes for maximum inhibition with 45 minutes persistence of inhibition.
Assay [41] addresses T1, Urokinase-type plasminogen activator. As to the kind of experiment: Specificity constant on Urokinase-type plasminogen activator was determined at 0 percent and at 97 minutes for maximum inhibition and no enzyme activity was recovered over the 2 h-time.
For assay [42], the target named is T2, Serine protease 1. Nature of the assay: Specificity constant on trypsin was determined at 0 percent and at 97 minutes for maximum inhibition with 45 minutes persistence of inhibition.
Assay [43] deals with T2, Serine protease 1. Nature of the assay: Rate constant of acylation on trypsin was determined at 0 percent and at 97 minutes for maximum inhibition with 45 minutes persistence of inhibition.
For assay [44], the target named is T1, Urokinase-type plasminogen activator. As to the kind of experiment: Rate constant of acylation on Urokinase-type plasminogen activator […] was determined at 0 percent and at 97 minutes for maximum inhibition and no enzyme activity was recovered over the 2 h-time.

T2 sequence (P07477 whole entry): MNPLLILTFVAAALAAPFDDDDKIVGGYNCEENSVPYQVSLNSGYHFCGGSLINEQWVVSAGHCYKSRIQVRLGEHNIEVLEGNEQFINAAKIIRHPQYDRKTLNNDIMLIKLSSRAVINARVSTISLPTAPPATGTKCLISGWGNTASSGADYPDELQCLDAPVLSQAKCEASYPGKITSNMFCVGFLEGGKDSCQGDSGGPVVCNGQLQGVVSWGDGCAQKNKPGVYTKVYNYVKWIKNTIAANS

Turning to `N=C(N)Nc1ccc([C@H]2C/C(=C\I)OC(=O)[C@@H]2NC(=O)c2ccccc2)cc1`, the Kd was 1.3e-05 s⁻¹ in assay [1] and 8.3e-05 s⁻¹ on Serine protease 1 [3]. In assay [2], the Ks/i stood at 0.17 µM.

With `C=C1C[C@H](c2ccc(NC(=N)N)cc2)[C@@H](NC(=O)c2ccccc2)C(=C)O1`, the ka in assay [4] worked out at 4.83 min⁻¹; on Serine protease 1 [7], 10.2 min⁻¹; in [12] it was 9.51 min⁻¹. Also, the Ks/i on Serine protease 1 [5] came to 10 µM; in assay [6], 0.46 µM; in assay [13], 6 µM. Besides, the ka/Ki at Serine protease 1 [8] came to 17000 M⁻¹ s⁻¹; in assay [9] it was 350000 M⁻¹ s⁻¹; in [11], 13300 M⁻¹ s⁻¹. Also, the Kd entry is “Not measurable” on Chymotrypsinogen A and 2.5e-05 s⁻¹ on Serine protease 1 [10].

For `C/C(Br)=C1/CCC(C(C)C)C(=O)O1` (stereo unspecified), the results for the ka/Ki in assay [14] and in assay [15] were 333 M⁻¹ s⁻¹ and 4500 M⁻¹ s⁻¹, respectively. For the same compound, the figures for the Ks/i in assay [16] and in assay [19] were 3 µM and 48.7 µM, respectively. For the same compound, the ka in [17] amounted to 1.12 min⁻¹; in assay [18], 0.81 min⁻¹.

In the case of `C=C1CCC(C(C)C)C(=O)O1` (stereo unspecified), the Ks/i in assay [20] was determined as 6.25 µM; at Serine protease 1 [21], 24 µM; in [23], 88 µM; in [26], 89 µM. Besides, the ka/Ki was found to be 333 M⁻¹ s⁻¹ on Serine protease 1 [22], 34700 M⁻¹ s⁻¹ in assay [24], 667 M⁻¹ s⁻¹ in assay [25] and 83.3 M⁻¹ s⁻¹ in [27]. Moreover, the ka in assay [28] was 3.2 min⁻¹; on Serine protease 1 [29], 0.45 min⁻¹; in assay [30], 13 min⁻¹; in assay [31], 0.42 min⁻¹.

With `C=C1CC(C)CC(=O)O1` (stereo unspecified), the results for the Ks/i in assay [32] and in assay [36] were 393 µM and 22.7 µM, respectively. For the same compound, the ka in [33] is 4.47 min⁻¹; in assay [35], 0.6 min⁻¹. Besides, the ka/Ki in assay [34] amounted to 167 M⁻¹ s⁻¹; in [37], 500 M⁻¹ s⁻¹.

Turning to `C=C1CCC(c2ccc(NC(=N)N)cc2)C(=O)O1` (stereo unspecified), the Kd entry (in assay [38]; on Serine protease 1 [10]) was “Not measurable” each time. The Ks/i in assay [39] came out at 0.33 µM; on Serine protease 1 [40], 0.23 µM. Further, the ka/Ki is 1.98e+07 M⁻¹ s⁻¹ in assay [41] and 1.03e+06 M⁻¹ s⁻¹ on Serine protease 1 [42]. Besides, the results for the ka (at Serine protease 1 [43]; in [44]) were 14.3 min⁻¹ and 391 min⁻¹, respectively.
